Laboratory results: patent US20020035260A1, “4-aza-steroids” (Novopharm Limited, priority 1997, published 2002)
Values joined by “and” are separate entries in the source; they are usually repeats but may differ in a detail not shown here. Equal entries are not always repeated. Where two headings read alike, the source gives them in different places.

How the values were obtained:
Type in all cases: biochemical
5-α-reductase I enzyme = target: T1, 5-α-reductase I enzyme (Rattus norvegicus, UniProt P24008); assay: Rat 5-α-reductase I enzyme assay (rat prostate); conditions: range of IC50 values from different experiments; pH 6.5, 2 μM 14C testosterone
T1 construct: Prostates, removed from 16 young male Sprague dawley rats (each weighing about 300-400 g), were minced and homogenized; from tissue; host or cells: rat prostate (Sprague Dawley), 140,000 g pellet
T1 sequence (P24008 1-259): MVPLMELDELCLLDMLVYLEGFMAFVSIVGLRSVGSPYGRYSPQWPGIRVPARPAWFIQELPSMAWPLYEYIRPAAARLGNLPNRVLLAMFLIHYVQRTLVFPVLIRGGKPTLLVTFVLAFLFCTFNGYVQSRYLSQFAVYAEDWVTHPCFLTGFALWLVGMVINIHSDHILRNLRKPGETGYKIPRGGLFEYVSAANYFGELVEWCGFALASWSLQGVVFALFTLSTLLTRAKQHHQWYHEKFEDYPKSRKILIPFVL
Procedure: (§1) Biochemical Assays were carried out to determine the inhibitory activities of various compounds of the previous examples on 5-α-reductase I enzyme isolated from male rate prostate and 5-α-reductase II enzyme isolated from rat epididymus and human prostate. These procedures were carried out following published literature procedures (H. Takami et al., J. Med. Chem., 39, pp 5047-5052; Tehming Liang, Margaret A. Cascieri et al., Endocrinology, 117, pp 571-579). Brief descriptions are as follows:
(§2) Rat 5-α-reductase I enzyme assay. Prostates, removed from 16 young male Sprague dawley rats (each weighing about 300-400 g), were minced and homogenized at 0-4° C. in 3 tissue volumes of buffer (0.32 M sucrose, 1 mM dithiothreitol, and 20 mM phosphate buffer, pH 6.5) using a polytron homogenizer. The homogenate was centrifuged at 4° C. at 140,000 g for 1 hour. The resultant pellet, after washing with the homogenizing buffer was suspended in the same buffer and stored at −70° C. The assay was carried out in a final volume of 0.5 ml containing 20 mM phosphate buffer (pH 6.5), 1 mM dithiothreitol, 150 μM NADPH, 2 μM ^14C testosterone and the enzyme concentration (500 μg-1 mg) For conducting the inhibitory studies on a 5-α-reductase I, finasteride and other test compounds were added in 10 μl of ethanol to a concentration 10^−9 to 10^−5 with five to six points including control using duplicate for each point to the above reaction mixture. The incubations were done for 20 minutes at 37° C. The reactions were stopped by adding 2.0 ml of ethyl acetate containing testosterone, 5-α-dihydrotestosterone, and androstenedione (10 μg each). After centrifugation at 1000 g for 5 minutes, the upper ethyl acetate extract was transferred to a tube and then evaporated under nitrogen to dryness. The compounds were taken up in 50 μl of ethyl acetate and chromatographed on Whatman LK5DF silica GF TLC plates using ethyl acetate-cyclohexane (1:1). The respective TLC spots corresponding to testosterone and dihydrotestosterone (Rf value same as that of androstenedione) were scraped from the plate and taken in respective scintillation vials. They were counted in the Beckman scintillation counter model No. LS 6500 with counting efficiency of 95% for ^14C carbon. Finasteride was used as a known standard during all screening. The range of IC50 values for different test compounds obtained from different experiments is shown in Table 1 under the column, Rat Prostate Enzyme I IC50.

5-α-reductase II enzyme [1] = target: T2, 5-α-reductase II enzyme (Homo sapiens, UniProt P31213); assay: Human 5-α-reductase II enzyme assay (human prostate); conditions: Tris-citrate pH 5.0
T2 construct: Specimens of human prostates were quickly frozen in dry ice after collection and kept at −70° C. before isolation of the enzyme; from tissue; host or cells: human prostate specimens, particulate fraction
T2 sequence (P31213 1-254): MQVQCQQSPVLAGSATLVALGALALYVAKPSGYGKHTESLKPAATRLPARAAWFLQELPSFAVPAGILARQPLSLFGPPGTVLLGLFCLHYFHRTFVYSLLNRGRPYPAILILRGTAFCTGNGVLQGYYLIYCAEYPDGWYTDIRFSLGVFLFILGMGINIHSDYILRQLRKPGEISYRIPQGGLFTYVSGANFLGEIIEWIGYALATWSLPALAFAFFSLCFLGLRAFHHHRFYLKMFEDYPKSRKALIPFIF
Procedure: as §1
(§3) Rat 5-α-reductase II enzyme assay: Epididymus, taken out during the isolation of the rat prostates during rat enzyme I assay, was stored at −70° C. Isolation of the enzyme and the assay were carried out following the procedure described above, except the reaction buffer used was 40 mM Tris-citrate, pH 4.5. The range of IC50 values for different test compounds obtained from different experiments is shown in Table 1 under the column, Rat Epididymus Enzyme II IC50.
(§4) Human 5-α-reductase II enzyme assay: Specimens of human prostates were quickly frozen in dry ice after collection and kept at −70° C. before isolation of the enzyme. Isolation of the enzyme and the assay were carried out following a similar procedure as for the isolation of rat 5-α-reductase II enzyme with some modifications. During the isolation of the enzyme, 50 μM NADPH was added to the homogenizing buffer as a stabilizer. The enzyme was stored in the homogenizing buffer containing 20% glycerol. The enzyme reaction buffer used as 40 mM Tris-citrate buffer, pH 5.0. The range of IC50 values for different test compounds obtained from different experiments is shown in Table 1 under the column, Human Prostate Enzyme II IC50.

5-α-reductase II enzyme [2] = target: T3, 5-α-reductase II enzyme (Rattus norvegicus, UniProt P31214); assay: Rat 5-α-reductase II enzyme assay (rat epididymus); conditions: range of IC50 values from different experiments; Tris-citrate pH 4.5
T3 construct: from tissue; host or cells: rat epididymis (Sprague Dawley), particulate fraction
T3 sequence (P31214 1-254): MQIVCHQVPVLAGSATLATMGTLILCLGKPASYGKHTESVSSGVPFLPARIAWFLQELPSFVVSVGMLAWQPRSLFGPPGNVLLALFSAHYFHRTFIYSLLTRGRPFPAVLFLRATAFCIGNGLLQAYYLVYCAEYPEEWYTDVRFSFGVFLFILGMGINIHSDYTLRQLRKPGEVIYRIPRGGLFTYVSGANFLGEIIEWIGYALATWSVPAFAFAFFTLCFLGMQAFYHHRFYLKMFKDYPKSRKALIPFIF
Procedure: as §1, §2, §3

5-α-reductase type II = target: T4, 5-α-reductase type II (Homo sapiens, UniProt P31213); assay: Activity against 5-α-reductase type II; conditions: statement in words, compared with finasteride
T4 sequence (P31213 1-254): T2 sequence (P31213 1-254)
Procedure: as §3, §4

[3] = range of IC50 values from different experiments, read-out: Human Prostate Enzyme II IC50

| IC50 (5-α-reductase I enzyme) | IC50 (5-α-reductase II enzyme [1]; [3]) [nM] | IC50 (5-α-reductase II enzyme [2]) | Structure (SMILES) | activity against 5-α-reductase type II (5-α-reductase type II) | IC50 (5-α-reductase II enzyme [1]; read-out: Human Prostate Enzyme II IC50) [nM] | IC50 (5-α-reductase II enzyme [1]; Human Prostate Enzyme II IC50, range of IC50 values from different experiments) |
| --- | --- | --- | --- | --- | --- | --- |
| 53 to 99 nM | 11.5 to 44 | 2.9 to 8.6 nM | CC(C)(C)NC(=O)[C@H]1CC[C@H]2[C@@H]3[C@H](Cl)C[C@H]4NC(=O)CC[C@]4(C)[C@H]3CC[C@]12C [1,2-Dihydro-7-α-chloro-finasteride, 1,2-dihydro-7-α-chloro-finasteride] |  |  |  |
| 453 to 492 nM | 536 to 755 | 567 to 891 nM | CC(C)(C)NC(=O)[C@H]1CC[C@H]2[C@@H]3[C@@H](O)C[C@H]4NC(=O)CC[C@]4(C)[C@H]3CC[C@]12C [1,2-Dihydro-7-β-hydroxy-finasteride, 1,2-dihydro-7-β-hydroxy-finasteride] |  |  |  |
| 351 to 468 nM |  |  | CC(C)(C)NC(=O)[C@H]1C[C@@H](O)[C@H]2[C@@H]3CC[C@H]4NC(=O)CC[C@]4(C)[C@H]3CC[C@@]21C [1,2-Dihydro-15-β-hydroxy-finasteride, 1,2-dihydro-15β-hydroxy-finasteride] |  |  |  |
|  | 19 to 32 |  | CC(C)(C)NC(=O)[C@H]1CC[C@H]2[C@@H]3[C@H](N=[N+]=[N-])C[C@H]4NC(=O)C=C[C@]4(C)[C@H]3CC[C@]12C [7-α-Azido-finasteride, 7-α-azido-finasteride] | very high specific inhibitory activity |  |  |
| 306 to 350 nM | 0.9 to 3.6 | 1.92 to 3.1 nM | CC(C)(C)NC(=O)[C@H]1CC[C@H]2[C@@H]3[C@H](Cl)C[C@H]4NC(=O)C=C[C@]4(C)[C@H]3CC[C@]12C [7-α-Chloro-finasteride, 7-α-chloro-finasteride] | considerably higher than that of finasteride itself |  |  |
| 1500 to 4300 nM | 213 to 570 |  | Cc1ccc(S(=O)(=O)O[C@H]2C[C@H]3NC(=O)C=C[C@]3(C)[C@H]3CC[C@]4(C)[C@@H](C(=O)NC(C)(C)C)CC[C@H]4[C@H]23)cc1 [7-β-Tosyloxy-finasteride, 7-β-tosyloxy-finasteride] |  |  |  |
| 811 to 1800 nM | 62 to 64 | 106 nM | CC(C)(C)NC(=O)C1CCC2C3C(CCC12C)C1(C)C=CC(=O)NC1C[C@@H]3O (stereo partly drawn) [7-β-hydroxy-finasteride] |  |  |  |
| 50 to 67 nM | 39 to 49.6 | 45 nM | CC(C)(C)NC(=O)[C@H]1CC=C2[C@@H]3CC[C@H]4NC(=O)C=C[C@]4(C)[C@H]3CC[C@@]21C [14,15-Dehydro-finasteride, 14,15-dehydro-finasteride] |  |  |  |
| 805 to 853 nM | 50 to 59 | 640 nM | CC(C)(C)NC(=O)C1CC(O)C2C3CCC4NC(=O)C=CC4(C)C3CCC12C (stereo not drawn) [15-β-hydroxy-finasteride] |  |  |  |

| Structure (SMILES) | IC50 (5-α-reductase I enzyme) | IC50 (5-α-reductase II enzyme [1]; [3]) [nM] | IC50 (5-α-reductase II enzyme [2]) | activity against 5-α-reductase type II (5-α-reductase type II) | IC50 (5-α-reductase II enzyme [1]; read-out: Human Prostate Enzyme II IC50) [nM] | IC50 (5-α-reductase II enzyme [1]; Human Prostate Enzyme II IC50, range of IC50 values from different experiments) |
| --- | --- | --- | --- | --- | --- | --- |
| CC(=O)O[C@H]1C[C@H]2NC(=O)C=C[C@]2(C)[C@H]2CC[C@]3(C)[C@@H](C(=O)NC(C)(C)C)CC[C@H]3[C@H]12 [7-β-Acetoxy-finasteride, 7-β-acetoxy-finasteride] | 385 to 697 nM | 175 to 362 | 135 to 357 nM |  |  |  |
| CC(=O)O[C@@H]1C[C@H](C(=O)NC(C)(C)C)[C@@]2(C)CC[C@H]3[C@@H](CC[C@H]4NC(=O)C=C[C@@]43C)[C@H]12 [15-β-Acetoxy-finasteride, 15-β-acetoxy-finasteride] | 4200 to 5700 nM |  | 1600 to 2700 nM |  | 2010 |  |
| CC(C)(C)NC(=O)C1CCC2C3CCC4NC(=O)C=CC4(C)C3CCC12C (stereo not drawn) [Finasteride, (5α, 17β)-(1,1-dimethyl-ethyl)-3-oxo-4-aza-androst-1-ene-17-carboxamide, reference compound] | 11 to 38 nM and 13 to 30 nM |  | 5.1 to 14.8 nM and 2.9 to 11.8 nM |  |  | 2.7 to 10.6 nM and 3.3 to 7 nM |
